Reference: patent US11254686B1 (Corvus Pharmaceuticals, Inc., priority 2017, dated 2022)

Columns and labels:
adenosine A2B receptor = adenosine A2B receptor (Homo sapiens (Human), UniProt P29275); assay: Adenosine receptor activity assay (Table 1), A2B activity; assay type: biochemical; details: for Ratio: A2A activity to A2B activity (A2A/A2B); for IC50: read-out: Ave A2B cAMP IC50
adenosine A2A receptor = adenosine A2A receptor (Homo sapiens (Human), UniProt P29274); assay: Adenosine receptor activity assay (Table 1), A2A activity; assay type: biochemical; details: read-out: Ave A2A cAMP IC50
Chain of adenosine A2A receptor (P29274 whole entry): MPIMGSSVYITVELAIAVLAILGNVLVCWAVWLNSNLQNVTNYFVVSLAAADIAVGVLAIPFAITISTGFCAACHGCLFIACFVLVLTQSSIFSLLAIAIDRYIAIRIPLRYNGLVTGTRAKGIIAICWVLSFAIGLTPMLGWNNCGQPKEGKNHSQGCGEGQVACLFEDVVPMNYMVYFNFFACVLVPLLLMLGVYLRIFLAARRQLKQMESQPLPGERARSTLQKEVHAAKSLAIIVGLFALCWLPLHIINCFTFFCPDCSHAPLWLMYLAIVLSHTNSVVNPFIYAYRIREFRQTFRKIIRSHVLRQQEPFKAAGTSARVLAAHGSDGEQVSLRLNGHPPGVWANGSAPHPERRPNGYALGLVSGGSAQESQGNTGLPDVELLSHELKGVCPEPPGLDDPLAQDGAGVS

Chain of adenosine A2B receptor (P29275 whole entry): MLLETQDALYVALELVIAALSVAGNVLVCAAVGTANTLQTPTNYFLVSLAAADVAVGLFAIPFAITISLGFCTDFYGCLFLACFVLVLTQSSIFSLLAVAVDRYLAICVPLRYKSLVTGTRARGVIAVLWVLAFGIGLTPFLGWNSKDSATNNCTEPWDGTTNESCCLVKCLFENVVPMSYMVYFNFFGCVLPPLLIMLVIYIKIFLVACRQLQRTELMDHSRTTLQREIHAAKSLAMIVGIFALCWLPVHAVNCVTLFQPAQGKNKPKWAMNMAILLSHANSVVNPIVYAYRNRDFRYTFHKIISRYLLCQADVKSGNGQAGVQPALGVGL

Compound | Ratio (adenosine A2B receptor) | IC50 (adenosine A2B receptor) [nM] | IC50 (adenosine A2A receptor) [nM]
COc1ccc(NC(=O)c2nc(N[C@@H](C)c3ccccn3)nc3ccsc23)cn1 [Example Z65, (S)—N-(6-Methoxypyridin-3-yl)-2-((1-(pyridin-2-yl)ethyl)amino)thieno[3,2-d]pyrimidine-4-carboxamide] | 14.95 | 50 to 100 | > 500
COc1ccc(CNC(=O)c2nc(NCc3cncc(F)c3)nc3ccsc23)cn1 [Example Z67, 2-(((5-Fluoropyridin-3-yl)methyl)amino)-N-((6-methoxypyridin-3-yl)methyl)thieno[3,2-d]pyrimidine-4-carboxamide] |  | 10 to 50 | 100 to 500
O=C(NCC1CCN(Cc2ccccc2)CC1)c1nc(NCc2cncc(F)c2)nc2ccsc12 [Example Z68, N-((1-Benzylpiperidin-4-yl)methyl)-2-(((5-fluoropyridin-3-yl)methyl)amino)thieno[3,2-d]pyrimidine-4-carboxamide] |  | 50 to 100 | 50 to 100
C[C@H](Nc1nc(C(=O)N2CCN(CCCc3ccccc3)CC2)c2sccc2n1)c1cccnc1 [Example Z69, (S)-(4-(3-Phenylpropyl)piperazin-1-yl)(2-((1-(pyridin-3-yl)ethyl)amino)thieno[3,2-d]pyrimidin-4-yl)methanone] | 0.92 | > 500 | > 500
O=C(c1nc(NCc2cccc(O)n2)nc2ccsc12)N1CCCC1 [Example Z70, (2-(((6-Hydroxypyridin-2-yl)methyl)amino)thieno[3,2-d]pyrimidin-4-yl)(pyrrolidin-1-yl)methanone] | 10.89 | 50 to 100 | > 500
O=C(c1nc(NCc2cccc(F)n2)nc2ccsc12)N1CCCC1 [Example Z71, (2-(((6-Fluoropyridin-2-yl)methyl)amino)thieno[3,2-d]pyrimidin-4-yl)(pyrrolidin-1-yl)methanone] | 12.97 | 50 to 100 | > 500
O=C(NCc1ccc(C(F)(F)F)nc1)c1nc(NCc2ccc(C(F)(F)F)nc2)nc2ccsc12 [Example Z72, N-((6-(Trifluoromethyl)pyridin-3-yl)methyl)-2-(((6-(trifluoromethyl)pyridin-3-yl)methyl)amino)thieno[3,2-d]pyrimidine-4-carboxamide] | 1.00 | > 500 | > 500
O=C(NCc1cccc(F)c1)c1nc(NCc2cccc(F)c2)nc2ccsc12 [Example Z74, N-(3-Fluorobenzyl)-2-((3-fluorobenzyl)amino)thieno[3,2-d]pyrimidine-4-carboxamide] | 1.74 | 100 to 500 | 100 to 500
O=C(c1nc(NCc2ccc(C(F)(F)F)nc2)nc2ccsc12)N1CC[C@H](O)C1 [Example Z75, (S)-(3-Hydroxypyrrolidin-1-yl)(2-(((6-(trifluoromethyl)pyridin-3-yl)methyl)amino)thieno[3,2-d]pyrimidin-4-yl)methanone] | 1.00 | > 500 | > 500
O=C(c1nc(NCc2ccc(C(F)(F)F)nc2)nc2ccsc12)N1CCCC1 [Example Z76, Pyrrolidin-1-yl(2-(((6-(trifluoromethyl)pyridin-3-yl)methyl)amino)thieno[3,2-d]pyrimidin-4-yl)methanone] | 0.22 | > 500 | 100 to 500
CC(CNC(=O)c1nc(N[C@@H](C)c2ccccn2)nc2ccsc12)Oc1cccnc1 (stereo partly drawn) [Example Z77, 2-(((S)-1-(Pyridin-2-yl)ethyl)amino)-N-(2-(pyridin-3-yloxy)propyl)thieno[3,2-d]pyrimidine-4-carboxamide] | 3.77 | 100 to 500 | 100 to 500
O=C(NCc1ccccn1)c1nc(NCc2ccccn2)nc2ccsc12 [Example Z78, N-(Pyridin-2-ylmethyl)-2-((pyridin-2-ylmethyl)amino)thieno[3,2-d]pyrimidine-4-carboxamide] | 2.02 | 50 to 100 | 100 to 500
C[C@H](Nc1nc(C(=O)NCc2ccc(C(F)(F)F)nc2)c2sccc2n1)c1ccccn1 [Example Z79, (S)-2-((1-(Pyridin-2-yl)ethyl)amino)-N-((6-(trifluoromethyl)pyridin-3-yl)methyl)thieno[3,2-d]pyrimidine-4-carboxamide] | 1.20 | 50 to 100 | 100 to 500
O=C(c1nc(NCc2cccc(F)c2)nc2ccsc12)N1CCN(CCCc2ccccc2)CC1 [Example Z80, (2-((3-Fluorobenzyl)amino)thieno[3,2-d]pyrimidin-4-yl)(4-(3-phenylpropyl)piperazin-1-yl)methanone] | 1.00 | > 500 | > 500
O=C(c1nc(NCc2cccc(F)c2)nc2ccsc12)N1CC[C@@H](O)C1 [Example Z81, (R)-(2-((3-Fluorobenzyl)amino)thieno[3,2-d]pyrimidin-4-yl)(3-hydroxypyrrolidin-1-yl)methanone] | 2.77 | 50 to 100 | 100 to 500
COc1ccc(CNC(=O)c2nc(NCc3cccc(F)c3)nc3ccsc23)cn1 [Example Z82, 2-((3-Fluorobenzyl)amino)-N-((6-methoxypyridin-3-yl)methyl)thieno[3,2-d]pyrimidine-4-carboxamide] | 1.03 | 50 to 100 | 50 to 100

Compound | Ratio (adenosine A2B receptor) | IC50 (adenosine A2B receptor) [nM] | IC50 (adenosine A2A receptor) [nM]
O=C(NCCn1ccnc1)c1nc(NCc2cncc(F)c2)nc2ccsc12 [Example Z85, N-(2-(1H-Imidazol-1-yl)ethyl)-2-(((5-fluoropyridin-3-yl)methyl)amino)thieno[3,2-d]pyrimidine-4-carboxamide] | 1.04 | > 500 | > 500
Cc1ncccc1CNC(=O)c1nc(NCc2cccnc2C)nc2ccsc12 [Example Z88, N-((2-Methylpyridin-3-yl)methyl)-2-(((2-methylpyridin-3-yl)methyl)amino)thieno[3,2-d]pyrimidine-4-carboxamide] | 1.00 | > 500 | > 500
COc1ccc(CNC(=O)c2nc(NCc3cccnc3C)nc3ccsc23)cn1 [Example Z94, N-((6-Methoxypyridin-3-yl)methyl)-2-(((2-methylpyridin-3-yl)methyl)amino)thieno[3,2-d]pyrimidine-4-carboxamide] | 1.00 | 100 to 500 | 100 to 500
CC1(O)CN(C(=O)c2nc(NCc3cncc(F)c3)nc3ccsc23)C1 [Example Z98, (2-(((5-Fluoropyridin-3-yl)methyl)amino)thieno[3,2-d]pyrimidin-4-yl)(3-hydroxy-3-methylazetidin-1-yl)methanone] | 22.37 | 10 to 50 | > 500
C[C@H](Nc1nc(C(=O)N2CC(C)(O)C2)c2sccc2n1)c1ccccn1 [Example Z101, (S)-(3-Hydroxy-3-methylazetidin-1-yl)(2-((1-(pyridin-2-yl)ethyl)amino)thieno[3,2-d]pyrimidin-4-yl)methanone] |  | 10 to 50 | 100 to 500
C[C@H](Nc1nc(C(=O)NCc2cncc(C#N)c2)c2sccc2n1)c1ccccn1 [Example Z102, (S)—N-((5-Cyanopyridin-3-yl)methyl)-2-((1-(pyridin-2-yl)ethyl)amino)thieno[3,2-d]pyrimidine-4-carboxamide] | 2.24 | 100 to 500 | 100 to 500
O=C(c1nc(NCc2cccnc2)nc2ccsc12)N1CC[C@@H](O)C1 [Example Z103, (R)-(3-Hydroxypyrrolidin-1-yl)(2-((pyridin-3-ylmethyl)amino)thieno[3,2-d]pyrimidin-4-yl)methanone] | 3.68 | 100 to 500 | > 500
C[C@H](Nc1nc(C(=O)NCc2cncc(C#N)c2)c2sccc2n1)c1cccnc1 [Example Z104, (S)—N-((5-Cyanopyridin-3-yl)methyl)-2-((1-(pyridin-3-yl)ethyl)amino)thieno[3,2-d]pyrimidine-4-carboxamide] | 0.50 | > 500 | 100 to 500
C[C@H](Nc1nc(C(=O)NCCO)c2sccc2n1)c1ccccn1 [Example Z106, (S)—N-(2-hydroxyethyl)-2-((1-(pyridin-2-yl)ethyl)amino)thieno[3,2-d]pyrimidine-4-carboxamide] | 2.95 | 10 to 50 | 100 to 500
CC(C)(Nc1nc(C(=O)N2CCCC2)c2sccc2n1)c1cccnc1 [Example Z112, (2-((2-(Pyridin-3-yl)propan-2-yl)amino)thieno[3,2-d]pyrimidin-4-yl)(pyrrolidin-1-yl)methanone] | 7.09 | 100 to 500 | > 500
COc1cncc(CNc2nc(C(=O)N3CCCC3)c3sccc3n2)c1 [Example Z114, (2-(((5-Methoxypyridin-3-yl)methyl)amino)thieno[3,2-d]pyrimidin-4-yl)(pyrrolidin-1-yl)methanone] | 5.15 | 100 to 500 | > 500
COc1cncc(CNc2nc(C(=O)N3CCC3)c3sccc3n2)c1 [Example Z116, Azetidin-1-yl(2-(((5-methoxypyridin-3-yl)methyl)amino)thieno[3,2-d]pyrimidin-4-yl)methanone] | 4.17 | 100 to 500 | > 500
COc1cncc(CNc2nc(C(=O)N3CC(C)C3)c3sccc3n2)c1 [Example Z117, (2-(((5-Methoxypyridin-3-yl)methyl)amino)thieno[3,2-d]pyrimidin-4-yl)(3-methylazetidin-1-yl)methanone] | 10.87 | 50 to 100 | > 500
O=C(c1nc(NCc2cccc(Cl)c2)nc2ccsc12)N1CC[C@@H](O)C1 [Example Z118, (R)-(2-((3-Chlorobenzyl)amino)thieno[3,2-d]pyrimidin-4-yl)(3-hydroxypyrrolidin-1-yl)methanone] | 13.75 | 50 to 100 | > 500
COc1cncc(CNc2nc(C(=O)N3CC(O)C3)c3sccc3n2)c1 [Example Z119, (3-Hydroxyazetidin-1-yl)(2-(((5-methoxypyridin-3-yl)methyl)amino)thieno[3,2-d]pyrimidin-4-yl)methanone] | 2.08 | 100 to 500 | > 500
